Assay results as given in US9809621B2, “Stable peptide-based PACE4 inhibitors” (SOCPRA SCIENCES SANTÉ ET HUMAINES S.E.C., priority 2011, dated 2017).
Several values for one entry are separate records, joined by “and”; a condition that tells them apart may be missing. Identical values can stand only once. Like-named read-outs stand apart in the source and are kept apart here. Numbered stars: 1 amine (or outer) side, 2 acyl side, 3 side chain; on linkers, the order of the positions; unused ones are H or OH. Square brackets hold non-standard residues; d marks the D form. Peptide text beside a SMILES is read from it. * marks the point of attachment. X3 = CC(C)C[C@H](N[*:1])c1cn([C@@H](CC(C)C)C(=O)[*:2])nn1; X5 = CC(C)C/C(=C\C[C@H](CC(C)C)N[*:1])C(=O)[*:2]; NH(4-amidinobenzyl) = N=C(N)c1ccc(CN*)cc1; PEG8 = NCCOCCOCCOCCOCCOCCOCCOCCOCCC(=O)O; X1 = CC(C)CN(CC(=O)[*:2])N[*:1]; X4 = N=C(N)NCCCN(CC(N)=O)N*; Nle = CCCC[C@H](N)C(=O)O; X2 = N=C(N)NC/C=C/CN*

Key:
[1] = Stability following incubation with DU145 cells; type: in vitro ADME, human; details: human, DU145 cells, Table 1, read-out: Stability (% remaining after 48 h)
Procedure: (§1) Multiple multi-Leu variants described in Table 1 were tested for their stability following incubation with DU145 cells, wherein their cellular stability and plasmatic half-life was measured.
Consequently, the multi-Leu peptide was further modified by the addition of amino acid analogues and/or with pseudo peptide bounds which increase the protection of the modified peptides from peptidase and protease degradation. Gains in stability were also measured in vitro in tumoral prostatic human cells (DU145). Increase in stability of the variants was also measured in vivo (FIG. 4).

PACE4 = molecular target: T1, PACE4 (Homo sapiens, UniProt P29122); assay: Inhibition constant (Ki) for PACE4; type: biochemical
T1 sequence (P29122 150-969): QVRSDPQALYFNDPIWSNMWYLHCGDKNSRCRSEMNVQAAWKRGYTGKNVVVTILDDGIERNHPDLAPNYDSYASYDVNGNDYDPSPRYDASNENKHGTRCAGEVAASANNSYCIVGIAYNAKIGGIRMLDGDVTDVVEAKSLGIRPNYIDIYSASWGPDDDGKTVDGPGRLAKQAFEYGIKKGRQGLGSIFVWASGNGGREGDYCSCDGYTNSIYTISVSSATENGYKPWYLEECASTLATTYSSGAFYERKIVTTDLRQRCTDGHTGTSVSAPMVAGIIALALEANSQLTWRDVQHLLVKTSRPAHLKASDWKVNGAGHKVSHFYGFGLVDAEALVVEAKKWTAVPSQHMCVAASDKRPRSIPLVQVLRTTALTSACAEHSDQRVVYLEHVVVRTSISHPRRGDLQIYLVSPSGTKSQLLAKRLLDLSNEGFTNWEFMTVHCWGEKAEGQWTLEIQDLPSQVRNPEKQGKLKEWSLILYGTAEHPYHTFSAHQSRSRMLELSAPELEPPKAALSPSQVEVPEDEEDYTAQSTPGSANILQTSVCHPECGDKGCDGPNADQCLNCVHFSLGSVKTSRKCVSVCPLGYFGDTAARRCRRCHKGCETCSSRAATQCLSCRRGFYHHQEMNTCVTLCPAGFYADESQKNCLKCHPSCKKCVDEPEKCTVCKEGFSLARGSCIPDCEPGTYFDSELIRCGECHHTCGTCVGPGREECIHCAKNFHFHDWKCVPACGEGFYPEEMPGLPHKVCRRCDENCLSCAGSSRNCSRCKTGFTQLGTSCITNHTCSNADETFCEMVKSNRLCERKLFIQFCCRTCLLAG

[2] = Plasmatic half-life / degradation by plasmatic protease; type: in vitro ADME; details: plasma
Procedure: as §1
Stabilisation strategy for multi-Leu variants was also assessed in presence of plasmatic protease. 8 variants protected at their N-terminal leucines were tested in order to establish their level of degradation since it is expected that N-terminal degradation will occur in absence of any modifications other than acetylation. Variants tested with azaβ3-leucine at each individual position and “click” bonds between the different leucines of the N-terminal part of the variants were protected against degradation (see FIG. 3 for modifications).

LNCaP tumors = assay: Intratumoral treatment of LNCaP tumors in immunosuppressed mice
DU145 cells = details: MTT; for Anti-proliferative activity in DU145 cells (in words): FIG. 1C, FIG. 7
LNCaP cells = details: MTT
furin = furin (Homo sapiens, UniProt P09958); assay: Inhibition constant (Ki) for furin; type: biochemical; details: read-out: Ki for furin
Sequence of furin (P09958 108-794): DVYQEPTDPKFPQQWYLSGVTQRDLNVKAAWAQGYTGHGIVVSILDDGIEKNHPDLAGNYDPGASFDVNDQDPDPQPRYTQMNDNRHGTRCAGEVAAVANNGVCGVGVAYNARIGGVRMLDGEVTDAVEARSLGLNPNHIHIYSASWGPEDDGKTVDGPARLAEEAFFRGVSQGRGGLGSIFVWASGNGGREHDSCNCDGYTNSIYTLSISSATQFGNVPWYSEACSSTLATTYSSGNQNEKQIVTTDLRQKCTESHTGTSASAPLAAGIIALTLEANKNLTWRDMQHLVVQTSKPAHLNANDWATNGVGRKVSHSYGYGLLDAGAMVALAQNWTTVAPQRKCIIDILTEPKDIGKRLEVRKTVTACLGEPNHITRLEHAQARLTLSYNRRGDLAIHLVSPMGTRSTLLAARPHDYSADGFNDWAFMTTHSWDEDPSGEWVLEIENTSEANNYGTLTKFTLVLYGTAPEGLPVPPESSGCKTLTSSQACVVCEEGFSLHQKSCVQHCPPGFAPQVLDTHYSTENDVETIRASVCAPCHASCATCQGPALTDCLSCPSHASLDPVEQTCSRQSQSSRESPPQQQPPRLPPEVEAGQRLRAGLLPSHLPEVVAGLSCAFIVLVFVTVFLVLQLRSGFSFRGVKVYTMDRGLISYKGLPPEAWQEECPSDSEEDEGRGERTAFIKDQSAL

[3] = Table 1, read-out: Ki for PACE4

CC(=O)N[C@@H](CC(C)C)c1cn([C@@H](CC(C)C)C(=O)N[C@@H](CC(C)C)C(=O)N[C@@H](CC(C)C)C(=O)N[C@@H](CCCNC(=N)N)C(=O)N[C@H](C(=O)N[C@@H](CCCCN)C(=O)N[C@@H](CCCNC(=N)N)C(N)=O)C(C)C)nn1 [ML[click]^P8-P7, Ac-L[click]LLLRVKR-NH2] (Ac-[X3]LLRVKR-NH2)
remaining at 48 h [1]: 52%
Ki (PACE4; [3]): 37 nM
half-life ([2]; Table 1): 4 ± 0.5 h

CC(=O)N[C@H](CC(C)C)C(=O)N[C@@H](CC(C)C)C(=O)N[C@@H](CC(C)C)C(=O)N[C@@H](CC(C)C)C(=O)N[C@@H](CCCNC(=N)N)C(=O)N[C@H](C(=O)N[C@@H](CCCCN)C(=O)NCc1ccc(C(=N)N)cc1)C(C)C [[D-Leu]^P8-ML-[AMBA]^P1, Ac-[D-Leu]-LLLRVK-[AMBA]] (Ac-[dL]LLLRVK-{NH(4-amidinobenzyl)})
Plasmatic concentration of PSA (in words) (LNCaP tumors; LNCaP tumors, FIG. 9): decreased
Appearance of excised tumors (in words) (LNCaP tumors; excised LNCaP tumors, FIG. 10A): smaller and have a white appearance
Level of p27KIP in excised tumors (in words) (LNCaP tumors; immunocytochemistry, vs ML-peptide treated and untreated tumors, FIG. 10B): increased
Level of Ki67 in excised tumors (in words) (LNCaP tumors; immunocytochemistry, vs ML-peptide treated and untreated tumors, FIG. 10C): decreased
Tumor volume (in words) (LNCaP tumors; intratumorally 50 μg/48 h, LNCaP tumors, immunosuppressed mice, FIG. 8): consistently the more potent compound
half-life ([2]; Table 1): 11.3 h
half-life ([2]; Table 2): 11.3 h

CC(=O)N[C@@H](CC(C)C)C(=O)N[C@@H](CC(C)C)C(=O)N[C@@H](CC(C)C)C(=O)N[C@@H](CC(C)C)C(=O)N[C@@H](CCCNC(=N)N)C(=O)N[C@H](C(=O)N[C@@H](CCCCN)C(=O)NCc1ccc(C(=N)N)cc1)C(C)C [ML-[AMBA]^P1, Ac-LLLLRVK-[AMBA]] (Ac-LLLLRVK-{NH(4-amidinobenzyl)})
Anti-proliferative activity in DU145 cells (in words) (DU145 cells): IC50 lower than the IC50 of the multi-Leu control

CC(=O)N[C@H](C/C=C(\CC(C)C)C(=O)N[C@@H](CC(C)C)C(=O)N[C@@H](CC(C)C)C(=O)N[C@@H](CCCNC(=N)N)C(=O)N[C@H](C(=O)N[C@@H](CCCCN)C(=O)N[C@@H](CCCNC(=N)N)C(N)=O)C(C)C)CC(C)C [ML[c-ene]^P8-P7, Ac-L═LLLRVKR-NH2] (Ac-[X5]LLRVKR-NH2)
half-life ([2]; Table 1): ~7.4 h

CC(=O)NCCOCCOCCOCCOCCOCCOCCOCCOCCC(=O)N[C@@H](CC(C)C)C(=O)N[C@@H](CC(C)C)C(=O)N[C@@H](CC(C)C)C(=O)N[C@@H](CC(C)C)C(=O)N[C@@H](CCCNC(=N)N)C(=O)N[C@H](C(=O)N[C@@H](CCCCN)C(=O)N[C@@H](CCCNC(=N)N)C(N)=O)C(C)C [[H2N-PEG8]-ML, Ac-[HN-PEG8]-LLLLRVKR-NH2] (Ac-[PEG8]LLLLRVKR-NH2)
remaining at 48 h [1]: 64%
half-life ([2]; Table 1): 1.3 ± 0.2 h

CCCC[C@H](NC(C)=O)C(=O)N[C@@H](CCCC)C(=O)N[C@@H](CC(C)C)C(=O)N[C@@H](CCCC)C(=O)N[C@@H](CCCN=C(N)N)C(=O)N[C@H](C(=O)N[C@@H](CCCCN)C(=O)N[C@@H](CCCN=C(N)N)C(N)=O)C(C)C [ML[Nle]^P5-6-8, Ac-[Nle][Nle]L[Nle]RVKR-NH2]
remaining at 48 h [1]: 41%
Ki (PACE4; Ki for PACE4, Table 1): 85 nM

CC(=O)NN(CC(=O)N[C@@H](CC(C)C)C(=O)N[C@@H](CC(C)C)C(=O)N[C@@H](CC(C)C)C(=O)N[C@@H](CCCNC(=N)N)C(=O)N[C@H](C(=O)N[C@@H](CCCCN)C(=O)NC/C=C/CNC(=N)N)C(C)C)CC(C)C [[Azaβ3L]^P8-ML-[ΔR-CO2]^P1, Ac-[Azaβ3L]LLLRVKR-[ΔR-COO]] (Ac-[X1]LLLRVK-X2)
half-life ([2]; Table 1): 5.67 ± 0.07 h
half-life ([2]; Table 2): 5.67 ± 0.07 h
Anti-proliferative activity in DU145 cells (in words) (DU145 cells): IC50 lower than the IC50 of the multi-Leu control

CC(=O)N[C@@H](CC(C)C)C(=O)N[C@@H](CC(C)C)C(=O)N[C@@H](CC(C)C)C(=O)N[C@@H](CC(C)C)C(=O)N[C@@H](CCCNC(=N)N)C(=O)N[C@H](C(=O)N[C@@H](CCCCN)C(=O)N[C@H](CCCNC(=N)N)C(N)=O)C(C)C [Ac-LLLLRVK-[DArg]-NH2] (Ac-LLLLRVK[dR]-NH2)
Ki (PACE4; read-out: Ki for PACE4): 1380 nM
Anti-proliferative activity in LNCaP cells (in words) (LNCaP cells; FIG. 1D): poorly
IC50 (LNCaP cells; read-out: IC50 cellular proliferation LNCaP, FIG. 1B/1D): 389000 ± 12000 nM
Anti-proliferative activity in DU145 cells (in words) (DU145 cells): poorly
IC50 (DU145 cells; read-out: IC50 cellular proliferation DU145, FIG. 1B/1C): 439000 ± 82000 nM
Ki (furin): 2600 nM

CC(=O)NN(CC(=O)N[C@@H](CC(C)C)C(=O)N[C@@H](CC(C)C)C(=O)N[C@@H](CC(C)C)C(=O)N[C@@H](CCCNC(=N)N)C(=O)N[C@H](C(=O)N[C@@H](CCCCN)C(=O)N[C@@H](CCCNC(=N)N)C(N)=O)C(C)C)CC(C)C [ML[Azaβ3L]^P8]
remaining at 48 h [1]: 83%
half-life ([2]; Table 1): 2.5 ± 0.1 h

CCCC[C@H](NC(C)=O)C(=O)N[C@@H](CCCC)C(=O)N[C@@H](CCCC)C(=O)N[C@@H](CCCC)C(=O)N[C@@H](CCCNC(=N)N)C(=O)N[C@H](C(=O)N[C@@H](CCCCN)C(N)=O)C(C)C [ML[Nleu]^P5-6-7-8, Ac-[Nle][Nle][Nle][Nle]RVK-NH2] (Ac-[Nle][Nle][Nle][Nle]RVK-NH2)
Ki (PACE4; Ki for PACE4, Table 1): 344 nM

CCCC[C@H](NC(=O)[C@H](CC(C)C)NC(=O)[C@H](CC(C)C)NC(=O)[C@H](CC(C)C)NC(C)=O)C(=O)N[C@@H](CCCN=C(N)N)C(=O)N[C@H](C(=O)N[C@@H](CCCCN)C(=O)N[C@@H](CCCN=C(N)N)C(N)=O)C(C)C [ML[Nle]^P5] (Ac-LLL[Nle]RVKR-NH2)
Ki (PACE4; [3]): 17 nM and 37 nM

CC(=O)N[C@@H](CC(C)C)C(=O)N[C@@H](CC(C)C)c1cn([C@@H](CC(C)C)C(=O)N[C@@H](CC(C)C)C(=O)N[C@@H](CCCNC(=N)N)C(=O)N[C@H](C(=O)N[C@@H](CCCCN)C(=O)N[C@@H](CCCNC(=N)N)C(N)=O)C(C)C)nn1 [ML[click]^P7-P6, Ac-LL[click]LLRVKR-NH2] (Ac-L[X3]LRVKR-NH2)
Ki (PACE4; [3]): 600 nM
half-life ([2]; Table 1): 1 ± 0.2 h

Ac-LLLSRVKR-NH2 [ML[Ser]-P5, Ac-LLLSRVKR-NH2]
remaining at 48 h [1]: 88%
Ki (PACE4; Ki for PACE4, Table 1): 11 nM
half-life ([2]; Table 1): 2.32 ± 0.04 h

CC(=O)N[C@@H](CC(C)C)C(=O)N[C@@H](CC(C)C)C(=O)N[C@@H](CC(C)C)C(=O)N[C@@H](CC(C)C)C(=O)N[C@@H](CCCNC(=N)N)C(=O)N[C@H](C(=O)N[C@@H](CCCCN)C(=O)NN(CCCNC(=N)N)CC(N)=O)C(C)C [ML[Azaβ3R]^P1, Ac-LLLLRVK[Azaβ3R]-NH2] (Ac-LLLLRVK-X4)
Ki (PACE4; [3]): 460 nM
half-life ([2]; Table 1): 5.39 ± 0.08 h
